pIC50: −log10 of the molar value.

Data on 24 molecules can be found in patent US8791113B2, “2,4-diaryl-substituted [1,8] naphthyridines as kinase inhibitors for use against cancer” (Merck Patent GmbH, priority 2010, dated 2014).

Test [1] deals with TGF-beta-induced phosphorylation of Smad2 (Ser465/467) and Smad3 (Ser423/425) in Mv1-Lu cells. In words: Inhibition of Smad2/3 phosphorylation in Mv1Lu cells (PathScan Phospho-Smad2 ELISA). Format: cell-based, mink Mustela vison. The settings on record: Neogale vison, Mv1-Lu cells, TGF-beta 1 5 ng/ml, Phospho-Smad2/3 ELISA, read-out: TβR activity (Example 51). The method, then:
Inhibition of Smad2/3 Phosphorylation in Mv1 Lu Cells by TGF-Beta Receptor I Kinase Inhibitors
This assay was used to determine the inhibitory potency of compounds on TGF-beta-induced phosphorylation of Smad2 (Ser465/467) and Smad3 (Ser423/425). Mv1-Lu cells (lung epithelial cell line from mink Mustela vison; ATCC number: CCL-64) were seeded in DMEM (Invitrogen) supplemented with 10% fetal bovine serum (Pan Biotech) at a defined cell density in 24-well or 96-well plates (24-well plate: 1.5×10^5 cells per well; 96-well plate: 4×10^4 cells per well). Cell cultures were incubated in DMEM at 37° C. and 10% CO2. On the next day, the medium was replaced and cells were serum-starved for 16-20 hours. The following day, serial dilutions of compounds were added to the wells, pre-incubated for 1.5 hrs before recombinant TGF-beta 1 ligand (final concentration 5 ng/ml; R&D systems) was added. After one hour of ligand stimulation, lysates were prepared and analyzed using an enzyme-linked immunosorbent assay kit (PathScan Phospho-Smad2 Kit, Cell Signaling Technologies). The ELISA detects phosphorylated Smad2 as well as phosphorylated Smad3 with the phospho-specific antibody. TGF-beta stimulated cells and unstimulated cells served as positive and negative controls (100% and background control). The concentration of the vehicle DMSO was kept constant at 0.2% (v/v) in all wells. Dose-response relationships were fitted using curve fitting algorithms of the RS1 statistics software package (Brooks Automation Inc. RS/1- Statistical Tools Handbook. Release 6.2) to determine the concentration at which half-maximal inhibition (IC50) of Smad2/3 phosphorylation was achieved.
In general terms: In an ELISA, binding on a coated surface is turned into a signal by an enzyme label.

The target of test [2] is T1, GST-ALK5 (TGF-beta receptor kinase) (Homo sapiens, UniProt P36897).
T1 sequence (P36897 34-503): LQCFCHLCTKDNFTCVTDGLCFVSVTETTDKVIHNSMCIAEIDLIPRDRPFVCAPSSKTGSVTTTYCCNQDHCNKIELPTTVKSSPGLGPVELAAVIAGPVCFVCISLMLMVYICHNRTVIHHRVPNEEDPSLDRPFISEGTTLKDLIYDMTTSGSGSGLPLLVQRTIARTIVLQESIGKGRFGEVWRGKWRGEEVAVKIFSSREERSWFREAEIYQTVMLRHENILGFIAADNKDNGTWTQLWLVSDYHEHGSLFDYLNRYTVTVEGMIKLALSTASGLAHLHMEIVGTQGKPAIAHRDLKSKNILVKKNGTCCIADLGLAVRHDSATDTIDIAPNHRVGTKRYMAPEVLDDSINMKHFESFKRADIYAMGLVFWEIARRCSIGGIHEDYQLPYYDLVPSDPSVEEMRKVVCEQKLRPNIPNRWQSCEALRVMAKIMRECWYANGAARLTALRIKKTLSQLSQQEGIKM
In words: In-vitro (enzyme) kinase flashplate assay: GST-ALK5 phosphorylation of GST-SMAD2 with 33P-ATP. It counts as biochemical. The settings on record: 384-well flashplate kinase assay, GST-ALK5 / GST-SMAD2, 33P-ATP, 30° C., 45 min; read-out: TβR activity (Example 50). On the procedure:
In-vitro (Enzyme) Assay for Determination of the Efficacy of Inhibitors of the Inhibition of TGF-Beta-Mediated Effects
The kinase assay was carried out as 384-well flashplate assay. 31.2 nM of GST-ALK5, 439 nM of GST-SMAD2 and 3 mM of ATP (with 0.3 μCi of ^33P-ATP/well) were incubated in a total volume of 35 μl (20 mM of HEPES, 10 mM of MgCl2, 5 mM of MnCl2, 1 mM of DTT, 0.1% of BSA, pH 7.4) without or with test substance (5-10 concentrations) at 30° C. for 45 min. The reaction was stopped using 25 μl of 200 mM EDTA solution, filtered with suction at room temperature after 30 min, and the wells were washed with 3 times 100 μl of 0.9% NaCl solution. Radioactivity was measured in the TopCount. The IC50 values were calculated using RS1.

With `O=c1c2cnccc2c(-c2cc(-c3cc(Cl)ccc3F)nc3ncccc23)cn1CC(O)CO` (stereo not drawn) [Compound 81, 4-[2-(5-Chloro-2-fluoro-phenyl)-[1,8]naphthyridin-4-yl]-2-(2,3-dihydroxy-propyl)-2H-[2,7]naphthyridin-1-one], the pIC50 in test [1] and in test [2] was above 6.00 each time.
As to `CN(C)CCOc1ccc(-c2cc(-c3cc(Cl)ccc3F)nc3ncccc23)c2ccncc12` [Compound 82, (2-{5-[2-(5-Chloro-2-fluoro-phenyl)-[1,8]naphthyridin-4-yl]-isoquinolin-8-yloxy}-ethyl)-dimethyl-amine], the pIC50 in test [1] and in test [2] was above 6.00 each time.
On to `Fc1ccc(Cl)cc1-c1cc(-c2ccc(Cl)c3cnccc23)c2cccnc2n1` [Compound 83, 2-(5-Chloro-2-fluoro-phenyl)-4-(8-chloro-isoquinolin-5-yl)-[1,8]naphthyridine], for which the pIC50 in test [1] and in test [2] was above 6.00 each time.
`Cc1ccc(-c2cc(-c3nccc4c(N)nccc34)c3cccnc3n2)o1` [Compound 84, 5-[2-(5-Methyl-furan-2-yl)-[1,8]naphthyridin-4-yl]-[2,6]naphthyridin-1-ylamine]: the pIC50 in test [1] and in test [2] was above 6.00 in each case.
Turning to `CC(=O)Nc1ccc2cnccc2c1-c1cc(-c2ccccc2F)nc2ncccc12` [Compound 85, N-{5-[2-(2-Fluoro-phenyl)-[1,8]naphthyridin-4-yl]-isoquinolin-6-yl}-acetamide], the pIC50 in test [1] was below 5.00; in test [2], 5.00 to 6.00.
The corresponding values for `CCN(CC)CCOc1ccc(-c2cc(-c3cc(Cl)ccc3F)nc3ncccc23)c2ccncc12` [Compound 86, (2-{5-[2-(5-Chloro-2-fluoro-phenyl)-[1,8]naphthyridin-4-yl]-isoquinolin-8-yloxy}-ethyl)-diethyl-amine] are above 6.00 and above 6.00.
Take `Nc1nccc2c(-c3cc(-c4ccccc4)nc4ncccc34)nccc12` [Compound 87, 5-(2-Phenyl-[1,8]naphthyridin-4-yl)-[2,6]naphthyridin-1-ylamine]: the pIC50 in test [1] and in test [2] was above 6.00 in each case.
For the molecule `[O-][n+]1ccc2c(-c3cc(-c4ccccc4F)nc4ncccc34)nccc2c1` [Compound 88, 2-(2-Fluoro-phenyl)-4-(6-oxy-[2,6]naphthyridin-1-yl)-[1,8]naphthyridine], the pIC50 in test [1] and in test [2] was below 5.00 in each case.
`O=c1[nH]cc(-c2cc(-c3cc(Cl)ccc3F)nc3ncccc23)c2ccncc12` [Compound 89, 4-[2-(5-Chloro-2-fluoro-phenyl)-[1,8]naphthyridin-4-yl]-2H-[2,7]naphthyridin-1-one]: the pIC50 in test [1] and in test [2] was above 6.00 each time.
For the molecule `Nc1nccc2c(-c3cc(-c4ccccc4Cl)nc4ncccc34)nccc12` [Compound 90, 5-[2-(2-Chloro-phenyl)-[1,8]naphthyridin-4-yl]-[2,6]naphthyridin-1-ylamine], the pIC50 is 5.00 to 6.00 in test [1] and above 6.00 in test [2].
In the same order, the values of `O=c1c2cnccc2c(-c2cc(-c3cc(Cl)ccc3F)nc3ncccc23)cn1CCN1CCCC1` [Compound 91, 4-[2-(5-Chloro-2-fluoro-phenyl)-[1,8]naphthyridin-4-yl]-2-(2-pyrrolidin-1-yl-ethyl)-2H-[2,7]naphthyridin-1-one] are above 6.00 and above 6.00.
As for `CCN(CC)CCNc1ccc(-c2cc(-c3cc(Cl)ccc3F)nc3ncccc23)c2ccncc12` [Compound 92, N′-{5-[2-(5-Chloro-2-fluoro-phenyl)-[1,8]naphthyridin-4-yl]-isoquinolin-8-yl}-N,N-diethyl-ethane-1,2-diamine], the pIC50 in test [1] and in test [2] was above 6.00 throughout.
With `CCN(CC)CCOc1ncc(-c2cc(-c3cc(Cl)ccc3F)nc3ncccc23)c2ccncc12` [Compound 98, (2-{4-[2-(5-Chloro-2-fluoro-phenyl)-[1,8]naphthyridin-4-yl]-[2,7]naphthyridin-1-yloxy}-ethyl)-diethyl-amine], the pIC50 in test [1] and in test [2] was above 6.00 each time.
`COc1ccc(-c2cc(-c3cc(F)ccc3F)nc3ncccc23)c2ccncc12` [Compound 99, 2-(2,5-Difluoro-phenyl)-4-(8-methoxy-isoquinolin-5-yl)-[1,8]naphthyridine]: the pIC50 in test [1] and in test [2] was above 6.00 in each case.
For `Fc1ccc(Cl)cc1-c1cc(-c2cnc(OCCN3CCCC3)c3cnccc23)c2cccnc2n1` [Compound 100, 2-(5-Chloro-2-fluoro-phenyl)-4-[1-(2-pyrrolidin-1-yl-ethoxy)-[2,7]naphthyridin-4-yl]-[1,8]naphthyridine], the pIC50 in test [1] and in test [2] was above 6.00 throughout.
With `c1coc(-c2cc(-c3c[nH]c4cnccc34)c3cccnc3n2)c1` [Compound 101, 2-Furan-2-yl-4-(1H-pyrrolo[2,3-c]pyridin-3-yl)-[1,8]naphthyridine], the pIC50 in test [1] and in test [2] was above 6.00 in each case.
As to `Fc1ccc(Cl)cc1-c1cc(-c2ccc(OCCN3CCCC3)c3cnccc23)c2cccnc2n1` [Compound 102, 2-(5-Chloro-2-fluoro-phenyl)-4-[8-(2-pyrrolidin-1-yl-ethoxy)-isoquinolin-5-yl]-[1,8]naphthyridine], the pIC50 in test [1] and in test [2] was above 6.00 in each case.
As to `CCN(CC)CCOc1ccc(-c2cc(-c3cc(F)ccc3F)nc3ncccc23)c2ccncc12` [Compound 103, (2-{5-[2-(2,5-Difluoro-phenyl)-[1,8]naphthyridin-4-yl]-isoquinolin-8-yloxy}-ethyl)-diethyl-amine], the pIC50 in test [1] and in test [2] was above 6.00 each time.
As to `CCN(CC)CCn1cc(-c2cc(-c3cc(Cl)ccc3F)nc3ncccc23)c2ccncc2c1=O` [Compound 104, 4-[2-(5-Chloro-2-fluoro-phenyl)-[1,8]naphthyridin-4-yl]-2-(2-diethylamino-ethyl)-2H-[2,7]naphthyridin-1-one], the pIC50 in test [1] and in test [2] was 5.00 to 6.00 each time.
On to `O=c1[nH]cc(-c2cc(-c3cc(F)ccc3F)nc3ncccc23)c2ccncc12` [Compound 107, 4-[2-(2,5-Difluoro-phenyl)-[1,8]naphthyridin-4-yl]-2H-[2,7]naphthyridin-1-one], for which the pIC50 in test [1] and in test [2] was above 6.00 in each case.
In the case of `Cc1occc1-c1cc(-c2c[nH]c3cnccc23)c2cccnc2n1` [Compound 108, 2-(2-Methyl-furan-3-yl)-4-(1H-pyrrolo[2,3-c]pyridin-3-yl)-[1,8]naphthyridine], the pIC50 in test [1] and in test [2] was above 6.00 in each case.
In the case of `Nc1nccc2c(-c3cc(-c4c(F)cccc4F)nc4ncccc34)nccc12` [Compound 109, 5-[2-(2,6-Difluoro-phenyl)-[1,8]naphthyridin-4-yl]-[2,6]naphthyridin-1-ylamine], the pIC50 in test [1] was below 5.00; in test [2], above 6.00.
The corresponding values for `O=c1cc(-c2cc(-c3cc(Cl)ccc3F)nc3ncccc23)c2ccncc2n1CCN1CCOCC1` [Compound 110, 4-[2-(5-Chloro-2-fluoro-phenyl)-[1,8]naphthyridin-4-yl]-1-(2-morpholin-4-yl-ethyl)-1H-[1,7]naphthyridin-2-one] are below 5.00 and 5.00 to 6.00.
With `Fc1ccccc1-c1cc(-c2ccnc3cnccc23)c2cccnc2n1` [Compound 111, 4-[2-(2-Fluoro-phenyl)-[1,8]naphthyridin-4-yl]-[1,7]naphthyridine], the pIC50 in test [1] is below 5.00; in test [2], above 6.00.
